Results published in patent US20070086949A1, “Method of bioimaging using nanocrystals of fluorescent dyes” (priority 2005, published 2007).

Key:
[1] = tested on: human cervix carcinoma cell line Hela; experiment: Confocal imaging of HeLa cells incubated with dye nanocrystal water dispersion; assay type: cell-based; details: confocal microscopy
Protocol: For cellular imaging, human cervix carcinoma cell line Hela was incubated with the prepared dye dispersion. The cell culture and imaging conditions are described in detail here. Human cervical carcinoma cell line (HeLa) was maintained in Dulbecco's modified eagle medium with 10% FBS according to the manufacturers instructions (American Type Culture Collection, Manassas, Va.). To study the uptake and imaging of HPPH nanocrystals, the cells were trypsinized and resuspended in the corresponding suitable media at a concentration of around 7.5×10^5/ml. 60 μl of this suspension was transferred to each 35 mm culture plate and 2 ml of the corresponding full medium was added. These plates were then placed in an incubator at 37° C. with 5% CO2 (VWR Scientific, model 2400). After 36 hours of incubation, the cells (about 60% confluency) were rinsed with PBS, and 2 ml of the corresponding fresh media was added to the plates. Finally, 50 μl of dye nanocrystals was added and mixed properly. Plates were returned to the incubator (37° C., 5% CO2) for the required incubation period. 50 μl of dye/Tween80 micelles of same dye concentration was used as control and separate culture plates were treated and incubated for the same time period as in the case of nanocrystals. […]

[2] = Size of TPB and perylene nanocrystals in water dispersion; assay type: physicochemical
Protocol: Briefly, 200 μl of dye acetone solution (10 mM concentration ) was injected into magnetically stirring water (10 ml). The average size of nanoparticle was estimated to vary from 50 nm to 200 nm depending on the concentration of original organic solution and water temperature. A homogenous dispersion of the dye nanocrystals without any noticeable aggregation or clumps was produced. Optical properties of the prepared nanocrystals were studied using UV-Visible and fluorescence spectroscopy. UV-visible absorption spectra as well as the fluorescence spectra of the nanocrystals were acquired using a Shimadzu 3600 UV spectrometer and a Jobin-Yvon Spectramax fluorimeter. Changes in absorption spectra as well as fluorescence intensity changes (such as quenching) were studied by comparing the spectra of nanocrystals in water with that of organic solution.
For this experiment, perylene was dissolved on DMSO at 1 mM, 10 mM or 100 mM. The nanocrystals were prepared as described in Example 1 by adding to water at 4° C. or 80° C.

c1cc2cccc3c4cccc5cccc(c(c1)c23)c54 [perylene]
intracellular staining pattern [1]: staining the entire cytoplasm with higher dye accumulation in vescicular bodies such as lysosomes | size of the nanocrystals versus concentration of the dye ([2]; perylene in DMSO at 1 mM, 10 mM or 100 mM, added to water at 4° C. or 80° C.): increase with increasing concentration | size of the nanocrystals versus water temperature ([2]; water at 4° C. or 80° C.): greater at the higher water temperature
